Key:
wildtype HIV-1 protease = molecular target: T1, wildtype HIV-1 protease (Human immunodeficiency virus type 1 group M subtype B, UniProt P04585); assay: Assay for inhibition of microbial expressed HIV protease (Pepcleav); type: biochemical; conditions: wild type HIV-1 protease expressed in E. coli, peptide substrate, pH 5.5; mean of at least two independent experiments; read-out: Pepcleav
T1 construct: the wildtype HIV-1 protease (which was expressed in Escherichia coli); made in house; host or cells: Escherichia coli
Procedure, shortened: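 E. coli-expressed wild-type HIV-1 protease (20 pM) preincubated 30 min at room temperature with inhibitor in pH 5.5 sodium acetate/NaCl/BSA buffer, then 400 μM Val-Ser-Gln-Asn-(βnaphthyl)Ala-Pro-Ile-Val added for 1 h at 30 °C. Quenched with formic acid; product quantified by LC-MS/MS peak area, indinavir internal standard.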

HIV-1 (H9IIIB strain) = assay: Antiviral acute infection assay in cell culture (Spread); type: cell-based; conditions: Human immunodeficiency virus 1, T-lymphoid, HIV-1 H9IIIB infection of MT-4 human T-lymphoid cells in 10% FBS; mean of at least two independent experiments
From the text: Antiviral Assays in Cell Culture (“Spread”)
Acute Infection Assay (“Spread”) data were generated using HIV-1 (H9IIIB strain) infection of MT-4 human T-lymphoid cells in 10% FBS, and according to the methods disclosed by J. P. Vacca et al, “L-735,524: An orally bioavailable human immunodeficiency virus type 1 protease inhibitor,” Proc. Natl. Acad. Sci. USA, Vol. 91, pp. 4096-4100 (April 1994).

Compound	IC50 (wildtype HIV-1 protease)	EC50 (HIV-1 (H9IIIB strain))
N[C@H](C(=O)Nc1cncc(F)c1CC[C@@H]1CN[C@H](COC(=O)NC[C@@H]2CCC(=O)N2)CO1)C(c1ccc(F)cc1)c1ccc(F)cc1 [Example 235, 4-fluoro-N-(5-fluoro-4-{2-[(2R,5S)-5-{[({[(2S)-5-oxopyrrolidin-2-yl]methyl}carbamoyl)oxy]methyl}morpholin-2-yl]ethyl}pyridin-3-yl)-β-(4-fluorophenyl)-L-phenylalaninamide]	97 nM	5000 nM
N[C@H](C(=O)Nc1cncc(F)c1CC[C@@H]1CN[C@H](COC(=O)NCC(F)(F)F)CO1)[C@@H](c1ccc(F)cc1)c1ccc(F)c(F)c1 [Example 265, (βS)-3,4-difluoro-β-(4-fluorophenyl)-N-(5-fluoro-4-{2-[(2R,5S)-5-({[(2,2,2-trifluoroethyl)carbamoyl]oxy}methyl)morpholin-2-yl]ethyl}pyridin-3-yl)-L-phenylalaninamide]	3.1 nM	36 nM
C[C@H](NC(=O)OC[C@@H]1CO[C@H](CCc2c(F)cccc2NC(=O)[C@@H](N)C(c2ccc(F)cc2)c2ccc(F)cc2)CN1)c1ccc(F)cc1 [Example 212, 4-fluoro-N-[3-fluoro-2-(2-{(2R,5S)-5-[({[(1S)-1-(4-fluorophenyl)ethyl]carbamoyl}oxy)methyl]morpholin-2-yl}ethyl)phenyl]-β-(4-fluorophenyl)-L-phenylalaninamide]	11 nM	810 nM
N[C@H](C(=O)Nc1cncc(F)c1CC[C@@H]1CN[C@H](COC(=O)NCC(F)(F)F)CO1)[C@H](c1ccc(F)cc1)c1ccc(C(F)(F)F)cc1 [Example 264, (βS)-β-(4-fluorophenyl)-N-(5-fluoro-4-{2-[(2R,5S)-5-({[(2,2,2-trifluoroethyl)carbamoyl]oxy}methyl)morpholin-2-yl]ethyl}pyridin-3-yl)-4-(trifluoromethyl)-L-phenylalaninamide]	3.6 nM	77 nM
COC(=O)N[C@H](C(=O)Nc1cccc(F)c1CC[C@@H]1CN[C@H](COC(=O)NCC(C)(C)O)CO1)C(c1ccc(F)cc1)c1ccc(F)cc1 [Example 121, 4-Fluoro-N-(3-fluoro-2-{2-[(2R,5S)-5-({[(2-hydroxy-2-methylpropyl)carbamoyl]oxy}methyl)morpholin-2-yl]ethyl}phenyl)-β-(4-fluorophenyl)-Nα-(methoxycarbonyl)-L-phenylalaninamide]	2.5 nM	10 nM
N[C@H](C(=O)Nc1cccc(F)c1CC[C@@H]1CN[C@H](COC(=O)NCC(F)(F)F)CO1)[C@H](c1ccccc1)c1ccc(OC(F)(F)F)cc1 [Example 236, (βR)-N-(3-fluoro-2-{2-[(2R,5S)-5-({[(2,2,2-trifluoroethyl)carbamoyl]oxy}methyl)morpholin-2-yl]ethyl}phenyl)-β-phenyl-O-(trifluoromethyl)-L-tyrosinamide]	69 nM	580 nM
NC(=O)OC[C@@H]1CO[C@H](COc2c(F)cncc2NC(=O)[C@@H](N)C(c2ccc(F)cc2)c2ccc(F)cc2)CN1 [Example 206, N-[4-({(2S,5S)-5-[(carbamoyloxy)methyl]morpholin-2-yl}methoxy)-5-fluoropyridin-3-yl]-4-fluoro-β-(4-fluorophenyl)-L-phenylalaninamide]	21 nM	120 nM
N[C@H](C(=O)Nc1cncc(F)c1CC[C@@H]1CN[C@H](COC(=O)NCC2CCCCO2)CO1)C(c1ccc(F)cc1)c1ccc(F)cc1 (stereo partly drawn) [Example 213, 4-fluoro-β-(4-fluorophenyl)-N-(5-fluoro-4-{2-[(2R,5S)-5-({[(tetrahydro-2H-pyran-2-ylmethyl)carbamoyl]oxy}methyl)morpholin-2-yl]ethyl}pyridin-3-yl)-L-phenylalaninamide]	6.1 nM	61 nM
CN1CCC(NC(=O)OC[C@@H]2CO[C@H](CCc3c(F)cncc3NC(=O)[C@@H](N)C(c3ccc(F)cc3)c3ccc(F)cc3)CN2)C1=O (stereo partly drawn) [Example 252, 4-fluoro-N-(5-fluoro-4-{2-[(2R,5S)-5-({[(1-methyl-2-oxopyrrolidin-3-yl)carbamoyl]oxy}methyl)morpholin-2-yl]ethyl}pyridin-3-yl)-β-(4-fluorophenyl)-L-phenylalaninamide]	7.7 nM	160 nM
N[C@H](C(=O)Nc1cncc(F)c1CC[C@@H]1CN[C@H](COC(=O)NCC(F)(F)F)CO1)[C@H](c1ccc(F)cc1)c1cccc(Cl)c1 [Example 266, (βR)-3-chloro-β-(4-fluorophenyl)-N-(5-fluoro-4-{2-[(2R,5S)-5-({[(2,2,2-trifluoroethyl)carbamoyl]oxy}methyl)morpholin-2-yl]ethyl}pyridin-3-yl)-L-phenylalaninamide]	3.1 nM	50 nM
COC(=O)N[C@H](C(=O)Nc1cncc(F)c1CC[C@@H]1CN[C@H](COC(=O)NCC(F)(F)F)CO1)[C@H](c1ccc(F)cc1)c1ccc(OC(F)(F)F)cc1 [Example 283]	14 nM	69 nM
CC1(CNC(=O)OC[C@@H]2CO[C@H](CCc3c(F)cncc3NC(=O)[C@@H](N)C(c3ccc(F)cc3)c3ccc(F)cc3)CN2)CCCO1 (stereo partly drawn) [Example 123, 4-Fluoro-N-[5-fluoro-4-(2-{(2R,5S)-5-[({[(2-methyltetrahydrofuran-2-yl)methyl]carbamoyl}oxy)methyl]morpholin-2-yl}ethyl)pyridin-3-yl]-β-(4-fluorophenyl)-L-phenylalaninamide]	3.2 nM	19 nM
N[C@H](C(=O)Nc1cncc(F)c1CC[C@@H]1CNC(COC(=O)NCC(F)(F)F)CO1)[C@@H](c1ccc(F)cc1)c1cccc(Cl)c1 (stereo in doubt) [Example 93, (2S,3S)-2-Amino-3-(3-chlorophenyl)-3-(4-fluorophenyl)-N-(5-fluoro-4-(2-((2R,5R)-5-(2,2,2-trifluoroethylaminocarbonyloxymethyl)morpholine-2-yl)ethyl)pyridin-3-yl)propanamide]	1.7 nM	52 nM
N[C@H](C(=O)Nc1cncc(F)c1CC[C@@H]1CN[C@H](COC(=O)NCC(F)(F)F)CO1)[C@H](c1ccc(F)cc1)c1ccc(Br)cc1 [Example 275, (βR)-4-bromo-β-(4-fluorophenyl)-N-(5-fluoro-4-{2-[(2R,5S)-5-({[(2,2,2-trifluoroethyl)carbamoyl]oxy}methyl)morpholin-2-yl]ethyl}pyridin-3-yl)-L-phenylalaninamide]	0.4 nM	25 nM
N[C@H](C(=O)Nc1cncc(F)c1CC[C@@H]1CN[C@H](COC(=O)NCc2ccno2)CO1)C(c1ccc(F)cc1)c1ccc(F)cc1 [Example 255, 4-fluoro-N-(5-fluoro-4-{2-[(2R,5S)-5-({[(isoxazol-5-ylmethyl)carbamoyl]oxy}methyl)morpholin-2-yl]ethyl}pyridin-3-yl)-β-(4-fluorophenyI)-L-phenylalaninamide]	6.4 nM	210 nM
COc1ccc([C@@H](c2ccccc2)[C@H](N)C(=O)Nc2cncc(F)c2CC[C@@H]2CN[C@H](COC(=O)NCC(F)(F)F)CO2)cc1 [Example 256, (βR)-N-(5-fluoro-4-{2-[(2R,5S)-5-({[(2,2,2-trifluoroethyl)carbamoyl]oxy}methyl)morpholin-2-yl]ethyl}pyridin-3-yl)-O-methyl-β-phenyl-L-tyrosinamide]	5.7 nM	100 nM
CNC(=O)OC[C@@H]1CO[C@H](CCc2c(F)cncc2NC(=O)[C@@H](N)C(c2ccc(F)cc2)c2ccc(F)cc2)CN1 [Example 205, 4-fluoro-N-(5-fluoro-4-{2-[(2R,5S)-5-{[(methylcarbamoyl)oxy]methyl}morpholin-2-yl]ethyl}pyridin-3-yl)-β-(4-fluorophenyl)-L-phenylalaninamide]	24 nM	58 nM
O=C(CC(c1ccc(F)cc1)c1ccc(F)cc1)Nc1cncc(F)c1CC[C@@H]1CN[C@H](COC(=O)NC(CO)C(F)(F)F)CO1 (stereo partly drawn) [Example 167, {(3S,6R)-6-[2-(3-{[3,3-bis(4-fluoro-phenyl)propanoyl]amino}-5-fluoropyridin-4-yl)ethyl]morpholin-3-yl}methyl [2,2,2-trifluoro-1-(hydroxymethyl)ethyl] carbamate]	1.5 nM	1250 nM
C[C@H](Oc1c(F)cccc1NC(=O)[C@@H](N)C(c1ccc(F)cc1)c1ccc(F)cc1)[C@@H]1CN[C@H](COC(=O)NCC(F)(F)F)CO1 [Example 193, 4-fluoro-β-(4-fluorophenyl)-N-(3-fluoro-2-{(1S)-1-[(2S,5S)-5-({[(2,2,2-trifluoroethyl)carbamoyl]oxy}methyl)morpholin-2-yl]ethoxy}phenyl)-L-phenylalaninamide]	120 nM	1400 nM
COC(=O)N[C@H](C(=O)Nc1cccc(F)c1CC[C@@H]1CN[C@H](COC(=O)NCC(F)(F)F)CO1)[C@@H](c1ccc(F)cc1)c1cccc(F)c1 [Example 287]	6 nM	17 nM
O=C(NCC(F)(F)F)OC[C@@H]1CO[C@H](CCc2c(F)cncc2NC(=O)[C@@H](NC(=O)OCCF)C(c2ccc(F)cc2)c2ccc(F)cc2)CN1 [Example 279, 4-fluoro-Nα-[(2-fluoroethoxy)carbonyl]-β-(4-fluorophenyl)-N-(5-fluoro-4-{2-[(2R,5S)-5-({[(2,2,2-trifluoroethyl)carbamoyl]oxy}methyl)morpholin-2-yl]ethyl}pyridin-3-yl)-L-phenylalaninamide]	1.9 nM	57 nM

Reference: US9315475B2 (MERCK SHARP & DOHME CORP., priority 2011, dated 2016)
